Measurements: patent US9096624B2 (OSI Pharmaceuticals, LLC, priority 2009, dated 2015)

Experiments:
FAK [1] = target: T1, FAK (Homo sapiens, UniProt Q05397); test: Cell-based capture ELISA for inhibition of FAK autophosphorylation [pY397] in MiaPaCa2 cells
Method: Cell-Based Assays for Inhibition of FAK Autophosphorylation: MiaPaCa2 and U87MG
ELISA kit from Invitrogen (KHO0441).
Reagents Provided in Biosource FAK [pY397]
The cells were then suspended in cell assay medium.

FAK [2] = target: T1, FAK; test: biochemical
FAK [3] = target: T1, FAK; test: Cell-based capture ELISA for inhibition of FAK autophosphorylation [pY397] in U87MG cells
[4] = MIA-PaCa2 cells, + 50% mouse plasma (Table 3), read-out: Mean FAK Cell Mechanistic IC50 + 50% mP MIA-PaCa2
[5] = Mean FAK Cell Mechanistic IC50 + 50% mP U87MG, + 50% mouse plasma

T1 sequence (Q05397 whole entry): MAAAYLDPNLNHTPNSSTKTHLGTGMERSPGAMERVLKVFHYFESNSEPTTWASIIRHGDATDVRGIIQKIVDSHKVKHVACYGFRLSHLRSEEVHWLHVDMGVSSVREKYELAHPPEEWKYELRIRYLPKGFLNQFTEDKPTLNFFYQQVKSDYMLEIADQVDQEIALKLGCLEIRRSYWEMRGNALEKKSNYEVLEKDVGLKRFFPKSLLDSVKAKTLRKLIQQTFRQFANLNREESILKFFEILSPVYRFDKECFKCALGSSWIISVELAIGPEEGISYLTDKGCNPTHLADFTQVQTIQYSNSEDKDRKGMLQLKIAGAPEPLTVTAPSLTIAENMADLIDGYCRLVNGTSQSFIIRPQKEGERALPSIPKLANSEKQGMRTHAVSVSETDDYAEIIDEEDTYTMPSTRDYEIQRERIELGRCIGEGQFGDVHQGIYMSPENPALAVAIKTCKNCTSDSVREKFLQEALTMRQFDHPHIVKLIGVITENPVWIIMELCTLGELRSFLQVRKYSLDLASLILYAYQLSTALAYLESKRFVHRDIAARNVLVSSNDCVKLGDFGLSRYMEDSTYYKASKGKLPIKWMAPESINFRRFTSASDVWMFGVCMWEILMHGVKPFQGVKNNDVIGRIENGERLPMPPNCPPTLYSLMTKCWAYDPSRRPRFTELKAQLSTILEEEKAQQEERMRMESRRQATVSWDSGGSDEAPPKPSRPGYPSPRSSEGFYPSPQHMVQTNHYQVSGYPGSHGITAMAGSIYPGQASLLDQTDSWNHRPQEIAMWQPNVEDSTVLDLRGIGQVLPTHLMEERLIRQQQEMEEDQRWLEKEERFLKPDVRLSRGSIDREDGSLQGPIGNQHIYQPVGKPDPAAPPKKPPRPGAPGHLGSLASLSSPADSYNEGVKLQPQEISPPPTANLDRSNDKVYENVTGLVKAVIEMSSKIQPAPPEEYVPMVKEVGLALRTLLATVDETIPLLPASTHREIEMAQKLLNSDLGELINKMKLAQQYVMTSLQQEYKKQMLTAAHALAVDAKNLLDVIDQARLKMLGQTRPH

Compound	IC50 (FAK [2]) [nM]	IC50 (FAK [3]; [5]) [nM]	also measured
CCOP(=O)(Cc1ccc(Nc2ncc(C(F)(F)F)c(Nc3ccccc3C(=O)NC)n2)c(OC)c1)OCC [Ex. 53, diethyl (3-methoxy-4-{[4-{[2-(methylcarbamoyl)phenyl]amino}-5-(trifluoromethyl)pyrimidin-2-yl]amino}benzyl)phosphonate]	< 1000	–	IC50 (FAK [1]; MIA-PaCa2 cells on fibronectin, 2 h, no plasma, read-out: Mean FAK Cell Mechanistic IC50 MIA-PaCa2): < 1000 nM; IC50 (FAK [1]; MIA-PaCa2 cells, + 50% human plasma, read-out: Mean FAK Cell Mechanistic IC50 + 50% hP MIA-PaCa2): < 1000 nM; IC50 (FAK [3]; U87MG FAK Cell Mech IC50 +hP, + human plasma): 160 nM; IC50 (FAK [3]; U87MG FAK Cell Mech IC50 +mP, + mouse plasma): 70 nM
CCOP(=O)(Cc1ccc(Nc2ncc(C(F)(F)F)c(Nc3ccc([C@H]4CC[C@H](O)CC4)cc3C(=O)NC)n2)cc1)OCC [Example 139, Diethyl (4-{[4-{[4-(trans-4-hydroxycyclohexyl)-2-(methylcarbamoyl)phenyl]amino}-5-(trifluoromethyl)pyrimidin-2-yl]amino}benzyl)phosphonate]	< 1000	1000 to 10000	IC50 (FAK [1]; [4]): < 1000 nM
CCOP(=O)(Cc1ccc(Nc2ncc(C(F)(F)F)c(Nc3ccc([C@H]4CC[C@H](O)CC4)cc3C(=O)NC)n2)c(OC)c1)OCC [Example 141, Diethyl (4-{[4-{[4-(trans-4-hydroxycyclohexyl)-2-(methylcarbamoyl)phenyl]amino}-5-(trifluoromethyl)pyrimidin-2-yl]amino}-3-methoxybenzyl)phosphonate]	< 1000	< 1000	IC50 (FAK [1]; [4]): < 1000 nM
CCOP(=O)(Cc1ccc(Nc2ncc(C(F)(F)F)c(Nc3ccccc3C(=O)NC)n2)c(OC)c1F)OCC [Example 147, Diethyl (2-fluoro-3-methoxy-4-{[4-{[2-(methylcarbamoyl)phenyl]amino}-5-(trifluoromethyl)pyrimidin-2-yl]amino}benzyl)phosphonate]	< 1000	< 1000	IC50 (FAK [1]; [4]): < 1000 nM
CCOP(=O)(Cc1ccc(Nc2ncc(C(F)(F)F)c(Nc3ccc(-c4cnn(CCCO)c4)c4c3C(=O)N(C)C4)n2)cc1)OCC [Example 156, Diethyl (4-{[4-({7-[1-(3-hydroxypropyl)-1H-pyrazol-4-yl]-2-methyl-3-oxo-2,3-dihydro-1H-isoindol-4-yl}amino)-5-(trifluoromethyl)pyrimidin-2-yl]amino}benzyl)phosphonate]	< 1000	< 1000	IC50 (FAK [1]; [4]): < 1000 nM
CCOP(=O)(Cc1ccc(Nc2ncc(C(F)(F)F)c(Nc3cccc4c3C(=O)N(C)C4C)n2)c(OC)c1)OCC (stereo not shown) [Example 158, Diethyl [4-({4-[(1,2-dimethyl-3-oxo-2,3-dihydro-1H-isoindol-4-yl)amino]-5-(trifluoromethyl)pyrimidin-2-yl}amino)-3-methoxybenzyl]phosphonate]	< 1000	< 1000	IC50 (FAK [1]; [4]): < 1000 nM
CCCP(=O)(CCC)c1cccc(Nc2ncc(C(F)(F)F)c(Nc3ccc([C@H]4CC[C@H](O)CC4)c4c3C(=O)N(C)C4)n2)c1 [Example 171, 7-{[2-{[3-(Dipropylphosphoryl)phenyl]amino}-5-(trifluoromethyl)pyrimidin-4-yl]amino}-4-(trans-4-hydroxycyclohexyl)-2-methyl-2,3-dihydro-1H-isoindol-1-one]	< 1000	< 1000	IC50 (FAK [1]; [4]): < 1000 nM
CCOP(=O)(Cc1ccc(Nc2ncc(C(F)(F)F)c(Nc3ccc([C@H]4CC[C@@](C(=O)O)(N(C)C)CC4)c4c3C(=O)N(C)C4)n2)c(OC)c1)OCC [Example 285, cis-4-(7-{[2-({4-[(diethoxyphosphoryl)methyl]-2-methoxyphenyl}amino)-5-(trifluoromethyl)pyrimidin-4-yl]amino}-2-methyl-1-oxo-2,3-dihydro-1H-isoindol-4-yl)-1-(dimethylamino)cyclohexanecarboxylic acid]	< 1000	< 1000	–
CCOP(=O)(Cc1ccc(Nc2ncc(C(F)(F)F)c(Nc3ccc([C@H]4CC[C@H](O)CC4)c4c3C(=O)N(C)C4)n2)c(OC)n1)OCC [Example 286, Diethyl [(5-{[4-{[7-(trans-4-hydroxycyclohexyl)-2-methyl-3-oxo-2,3-dihydro-1H-isoindol-4-yl]amino}-5-(trifluoromethyl)pyrimidin-2-yl]amino}-6-methoxypyridin-2-yl)methyl]phosphonate]	< 1000	< 1000	–
CCOP(=O)(Cc1ccc(Nc2ncc(C(F)(F)F)c(Nc3ccc(N4CCNC(C(=O)O)C4)c4c3C(=O)N(C)C4)n2)c(OC)c1)OCC (stereo not shown) [Example 287, 4-(7-{[2-({4-[(Diethoxyphosphoryl)methyl]-2-methoxyphenyl}amino)-5-(trifluoromethyl)pyrimidin-4-yl]amino}-2-methyl-1-oxo-2,3-dihydro-1H-isoindol-4-yl)piperazine-2-carboxylic acid]	< 1000	1000 to 10000	–
CCOP(=O)(Cc1ccc(Nc2ncc(C(F)(F)F)c(Nc3ccc([C@H]4CC[C@H](OCOP(=O)(O)O)CC4)c4c3C(=O)N(C)C4)n2)c(OC)c1)OCC [Example 288, {[trans-4-(7-{[2-({4-[(diethoxyphosphoryl)methyl]-2-methoxyphenyl}amino)-5-(trifluoromethyl)pyrimidin-4-yl]amino}-2-methyl-1-oxo-2,3-dihydro-1H-isoindol-4-yl)cyclohexyl]oxy}methyl phosphate]	< 1000	< 1000	–
CCOP(=O)(Cc1ccc(Nc2ncc(C(F)(F)F)c(Nc3ccc(-c4cnn(CCCO)c4)c4c3C(=O)N(C)C4)n2)c(OC)c1)OCC [Example 289, Diethyl (4-{[4-({7-[1-(3-hydroxypropyl)-1H-pyrazol-4-yl]-2-methyl-3-oxo-2,3-dihydro-1H-isoindol-4-yl}amino)-5-(trifluoromethyl)pyrimidin-2-yl]amino}-3-methoxybenzyl)phosphonate]	< 1000	< 1000	–
CCOP(=O)(Cc1ccc(Nc2ncc(C(F)(F)F)c(Nc3cccc4c3c(=O)c(C)cn4C)n2)c(OC)c1)OCC [Example 300, Diethyl [4-({4-[(1,3-dimethyl-4-oxo-1,4-dihydroquinolin-5-yl)amino]-5-(trifluoromethyl)pyrimidin-2-yl}amino)-3-methoxybenzyl]phosphonate]	< 1000	< 1000	–
CCOC(=O)Cn1cc(C)c(=O)c2c(Nc3nc(Nc4ccc(CP(=O)(OCC)OCC)cc4OC)ncc3C(F)(F)F)cccc21 [Example 301]	< 1000	< 1000	–
CCOP(=O)(Cc1ccc(Nc2ncc(C(F)(F)F)c(Nc3cccc4c3c(=O)c(C)cn4CC(=O)O)n2)c(OC)c1)OCC [Example 302]	< 1000	1000 to 10000	–
CCOP(=O)(Cc1ccc(Nc2ncc(C(F)(F)F)c(Nc3cccc4c3c(=O)c(C)cn4CP(=O)(OCC)OCC)n2)c(OC)c1)OCC [Example 303]	< 1000	< 1000	–
CCOC(=O)[C@H]1CC[C@H](c2ccc(Nc3nc(Nc4ccc(CP(=O)(OCC)OCC)cc4OC)ncc3C(F)(F)F)c3c(=O)c(C)c[nH]c32)CC1 [Example 304, Ethyl trans-4-(5-{[2-({4-[(diethoxyphosphoryl)methyl]-2-methoxyphenyl}amino)-5-(trifluoromethyl)pyrimidin-4-yl]amino}-3-methyl-4-oxo-1,4-dihydroquinolin-8-yl)cyclohexanecarboxylate]	< 1000	< 1000	–
CCOC(=O)[C@H]1CC[C@@H](c2ccc(Nc3nc(Nc4ccc(CP(=O)(OCC)OCC)cc4OC)ncc3C(F)(F)F)c3c(=O)c(C)c[nH]c32)CC1 [Example 305, Ethyl cis-4-(5-{[2-({4-[(diethoxyphosphoryl)methyl]-2-methoxyphenyl}amino)-5-(trifluoromethyl)pyrimidin-4-yl]amino}-3-methyl-4-oxo-1,4-dihydroquinolin-8-yl)cyclohexanecarboxylate]	< 1000	< 1000	–
CCOP(=O)(Cc1ccc(Nc2ncc(C(F)(F)F)c(Nc3ccc([C@H]4CC[C@@H](C(=O)O)CC4)c4[nH]cc(C)c(=O)c34)n2)c(OC)c1)OCC [Example 306, Cis-4-(5-{[2-({4-[(diethoxyphosphoryl)methyl]-2-methoxyphenyl}amino)-5-(trifluoromethyl)pyrimidin-4-yl]amino}-3-methyl-4-oxo-1,4-dihydroquinolin-8-yl)cyclohexanecarboxylic acid]	< 1000	< 1000	–
CCOP(=O)(Cc1ccc(Nc2ncc(C(F)(F)F)c(Nc3ccc([C@H]4CC[C@H](C(=O)O)CC4)c4[nH]cc(C)c(=O)c34)n2)c(OC)c1)OCC [Example 307, Trans-4-(5-{[2-({4-[(diethoxyphosphoryl)methyl]-2-methoxyphenyl}amino)-5-(trifluoromethyl)pyrimidin-4-yl]amino}-3-methyl-4-oxo-1,4-dihydroquinolin-8-yl)cyclohexanecarboxylic acid]	< 1000	1000 to 10000	–
CCOP(=O)(Cc1cnc(Nc2ncc(C(F)(F)F)c(Nc3ccc([C@H]4CC[C@H](O)CC4)c4c3C(=O)N(C)C4)n2)c(OC)c1)OCC [Example 308, Diethyl [(6-{[4-{[7-(trans-4-hydroxycyclohexyl)-2-methyl-3-oxo-2,3-dihydro-1H-isoindol-4-yl]amino}-5-(trifluoromethyl)pyrimidin-2-yl]amino}-5-methoxypyridin-3-yl)methyl]phosphonate]	< 1000	1000 to 10000	–
CCOP(=O)(Cc1ccc(Nc2ncc(C(F)(F)F)c(Nc3c4c(cc[n+]3[O-])CN(C)C4=O)n2)c(OC)c1)OCC [Example 310]	< 1000	1000 to 10000	–
CCOP(=O)(Cc1ccc(Nc2ncc(C(F)(F)F)c(Nc3nccc4c3C(=O)N(C)C4)n2)c(OC)c1)OCC [Example 311]	< 1000	1000 to 10000	–
